Data taken from patent US5811582A, “Dimethyl-(3-aryl-but-3-enyl)-amine compounds as pharmaceutical active ingredients” (priority 1996, dated 1998).
Where a name gives a salt, the structure may show the parent alone. Read-outs that look alike come from different tables or passages of the source.

System: mice
Experiment: Phenylquinone-induced writhing test on mice (analgesia)
Type: in vivo, male NMRI mice
Settings: Mus musculus, read-out: ED50 (writhing test on mice)
Procedure: Testing for analgesia using the writhing test on mice
Testing for analgesic effectiveness was performed using the phenylquinone-induced writhing test on mice, modified according to I. C. Hendershot, J. Forsaith, J. Pharmacol. Exp. Ther. 125, 237-240 (1959). Male NMRI mice with a weight of 25-30 g were used for this purpose. For each dose of substance, groups of 10 animals received, 10 minutes after the intravenous administration of a compound according to the invention, 0.3 ml per mouse of an 0.02% aqueous solution of phenylquinone (phenylbenzoquinone: manufactured by Sigma, Deisenhofen; solution prepared with the addition of 5% ethanol and kept on a water bath at 45° C.) administered intraperitoneally. The animals were placed individually in observation cages. The number of pain-induced stretching movements (so-called writhing reactions=straightening of the body with stretching of the rear extremities) 5-20 minutes after the administration of phenylquinone was counted by means of a push-button counter.
The ED50 values of the writhing reaction were calculated by means of regression analysis (evaluation program supplied by Martens EDV Service, Eckental) from the dose-dependent decrease in the writhing reactions, by comparison with groups of animals which were tested in parallel and to which no compounds according to the invention were administered.

[1] = mice, intravenous, 10 minutes before phenylquinone (0.3 ml of 0.02% solution i.p.), writhing reactions counted 5-20 minutes after phenylquinone

| SMILES | ED50 [1] [mg/kg] | ED50 (iv) [mg/kg] |
| --- | --- | --- |
| C/C=C(\c1ccc2cc(O)ccc2c1)C(C)CN(C)C.Cl (racemic) [Example 12, (Z)-(RS)-6-[1-(2-dimethylamino-1-methyl-ethyl)-propenyl]-naphth-2-ol hydrochloride] | 0.97 | – |
| C/C=C(\c1cccc(O)c1)[C@@H](C)CN(C)C [3 (-)-enantiomer] | 0.98 | – |
| CN(C)C[C@H]1CCC=C1c1ccc(C(F)(F)F)cc1 [20 (+)-enantiomer] | 1.4 | – |
| C/C=C(\c1cccc(O)c1)C(C)CN(C)C.Cl (racemic) [Example 2, (Z)-(RS)-3-[1-(2-dimethylamino-1-methyl-ethyl)-propenyl]-phenol hydrochloride] | 1.37 | – |
| C/C=C(\c1cccc(O)c1)[C@H](C)CN(C)C [3 (+)-enantiomer] | 2.25 | – |
| C[C@@H]1C=C(c2cccc(O)c2)[C@H](CN(C)C)CC1 [25 (-)-enantiomer] | 0.9 | – |
| CC/C=C(\c1cccc(O)c1)C(C)CN(C)C.Cl (racemic) [Example 15, (Z)-(RS)-3-[1-(2-dimethylamino-1-methyl-ethyl)-but-1-enyl]-phenol hydrochloride] | 1.33 | – |
| Cc1cc2c(C3=CCCCC3CN(C)C)cccc2s1.Cl (racemic) [Example 24, (RS)-dimethyl-[2-(2-methyl-benzo[b]thiophen-4-yl]-cyclohex-2-enylmethyl]-amine hydrochloride] | 1.35 | – |
| CN(C)C[C@H]1CCCC=C1c1cccc(O)c1 [27 (+)-enantiomer] | 1.6 | – |
| C/C=C(\c1cccc(OC(=O)c2ccccc2OC(C)=O)c1)C(C)CN(C)C (racemic) [Example 4, (Z)-(RS)-2-acetoxy-benzoic acid-3-[1-2-dimethylamino-1-methyl-ethyl)-propenyl]-phenyl ester hydrochloride] | 1.64 | – |
| CN(C)C[C@@H]1CCCC=C1c1cccc(O)c1 [26 (-)-enantiomer] | 1.04 | – |
| CN(C)C[C@@H]1CCC=C1c1ccc(C(F)(F)F)cc1 [20 (-)-enantiomer] | 2.12 | – |
| COc1cccc([C@@]2(O)CCCC[C@@H]2CN(C)C)c1.Cl (racemic) [tramadol, (1RS,2RS)-2-dimethylaminomethyl-1-(3-methoxy-phenyl)-cyclohexanol hydrochloride, reference compound] | – | 3.68 |
| CC(C)=C(c1cccc(O)c1)C(C)CN(C)C.Cl (racemic) [Example 18, (RS)-3-[1-(2-dimethylamino-1-methyl-ethyl)-2-methyl-propenyl]-phenol hydrochloride] | 2.07 | – |
